Measurements taken from ChEMBL document CHEMBL5352391, “New structural classes of antimalarials” (Eur J Med Chem, 2022).
pEC50, pIC50, pKi: −log10 of the molar value. Converted amounts (≈) assume the structure as drawn.

Key:
Plasmodium falciparum [1] = test: Antiplasmodial activity against chloroquine sensitive Plasmodium falciparum GC03 infected in human erythrocyte assessed as inhibition of parasite growth incubated for 48 hrs by SYBR Green dye based fluorescence assay; format: functional, organism-based
Plasmodium falciparum [2] = test: Antiplasmodial activity against Plasmodium falciparum K1 infected in human erythrocyte assessed as inhibition of parasite growth incubated for 72 hrs by [3H]-hypoxanthine incorporation based liquid scintillation counting method; format: functional, organism-based
[3] = Retention time of the compound by HPLC-MS analysis; format: physicochemical
Plasmodium falciparum [4] = test: Antiplasmodial activity against chloroquine resistant Plasmodium falciparum RKL9 infected in human erythrocyte assessed as inhibition of parasite growth incubated for 24 hrs by three fold serial dilution assay; format: functional
Plasmodium falciparum [5] = test: Antiplasmodial activity against mixture of chloroquine resistant Plasmodium falciparum RKL 303-chloroquine sensitive Plasmodium falciparum 3D7 infected in human erythrocyte assessed as inhibition of parasite growth incubated for 48 hrs by Giemsa staining based microscopic analysis; format: functional, organism-based
Plasmodium berghei = test: Antimalarial activity against Plasmodium berghei ANKA infected in Swiss albino mouse assessed as reduction in parasitemia at 50 micromol/kg,po administrated for 4 days by Giemsa staining based microscopic analysis; format: functional; set-up: scale not given: the % may be the effect or the level left; conditions: dose 50 µmol/kg, time 4 day
Plasmodium falciparum [6] = test: Antiplasmodial activity against chloroquine sensitive Plasmodium falciparum 3D7 assessed as inhibition of parasite growth incubated for 48 hrs by Malstat reagent based spectrophotometric; format: functional, organism-based; conditions: 3D7, 48 h
Plasmodium falciparum [7] = test: Antimalarial activity against Plasmodium falciparum 3D7 assessed as reduction of parasite growth at 25 uM incubated for 96 hrs by SYBR green I dye based fluorescence assay relative to control; format: functional; set-up: scale not given: the % may be the effect or the level left
Plasmodium falciparum [8] = test: Antiplasmodial activity against chloroquine resistant Plasmodium falciparum K14 assessed as inhibition of parasite growth incubated for 48 hrs by [3H]-hypoxanthine incorporation based microbeta scintillation counting method; format: functional, organism-based
Plasmodium falciparum [9] = test: Antiplasmodial activity against chloroquine resistant Plasmodium falciparum RKL-2 assessed as inhibition of parasite growth incubated for 36 to 40 hrs by Giemsa staining based microscopic analysis; format: functional, organism-based
Plasmodium falciparum [10] = test: Antiplasmodial activity against chloroquine resistant Plasmodium falciparum K14 assessed as inhibition of parasite growth incubated for 42 hrs by [3H]-hypoxanthine incorporation based microbeta scintillation counting method; format: functional, organism-based
Plasmodium falciparum [11] = test: Antimalarial activity against Plasmodium falciparum 3D7 assessed as inhibition of parasite growth by measuring minimum inhibitory concentration by microassay; format: functional
Plasmodium falciparum [12] = test: Antimalarial activity against Plasmodium falciparum 3D7 assessed as reduction of parasite growth incubated for 96 hrs by SYBR green I dye based fluorescence assay; format: functional, organism-based; conditions: 3D7, 96 h
Plasmodium falciparum [13] = test: Antiplasmodial activity against erythrocytic stage of Plasmodium falciparum K1 assessed as reduction of parasite growth incubated for 48 hrs by [3H]-hypoxanthine incorporation based beta-plate liquid scintillation counting method; format: functional, organism-based
[14] = Cytotoxicity against human HepG2 cells assessed as reduction in cell viability incubated for 72 hrs by MTT assay; format: toxicity, cell-based
Plasmodium falciparum [15] = test: Antiplasmodial activity against erythrocytic stage of Plasmodium falciparum NF54 assessed as reduction of parasite growth incubated for 48 hrs by [3H]-hypoxanthine incorporation based beta-plate liquid scintillation counting method; format: functional, organism-based
[16] = Selectivity index, ratio of CC50 for cytotoxicity against human HepG2 cells by MTT assay to EC50 for antiplasmodial activity against erythrocytic stage of Plasmodium falciparum K1 by [3H]-hypoxanthine incorporation based liquid scintillation counting method; format: toxicity, cell-based; conditions: read-out: Ratio CC50/EC50
Plasmodium falciparum [17] = test: Antiplasmodial activity against erythrocytic stage of Plasmodium falciparum 3D7 assessed as reduction of parasite growth incubated for 100 hrs by SYBR Green dye based fluorescence assay; format: functional, organism-based; conditions: 3D7, 100 h
[18] = Selectivity index, ratio of CC50 for cytotoxicity against human HepG2 cells by MTT assay to EC50 for antiplasmodial activity against erythrocytic stage of Plasmodium falciparum NF54 by [3H]-hypoxanthine incorporation based liquid scintillation counting method; format: toxicity, cell-based; conditions: read-out: Ratio CC50/EC50
Falcipain 2 = biological target: T1, Falcipain 2 (Plasmodium falciparum, UniProt Q9N6S8); test: Inhibition of Plasmodium falciparum recombinant His-tagged falcipain-2 expressed in Escherichia coli assessed as inhibition constant using Cbz-Phe-Arg-AMC as substrate by fluorescence spectrophotometer assay
T1 sequence (Q9N6S8 whole entry): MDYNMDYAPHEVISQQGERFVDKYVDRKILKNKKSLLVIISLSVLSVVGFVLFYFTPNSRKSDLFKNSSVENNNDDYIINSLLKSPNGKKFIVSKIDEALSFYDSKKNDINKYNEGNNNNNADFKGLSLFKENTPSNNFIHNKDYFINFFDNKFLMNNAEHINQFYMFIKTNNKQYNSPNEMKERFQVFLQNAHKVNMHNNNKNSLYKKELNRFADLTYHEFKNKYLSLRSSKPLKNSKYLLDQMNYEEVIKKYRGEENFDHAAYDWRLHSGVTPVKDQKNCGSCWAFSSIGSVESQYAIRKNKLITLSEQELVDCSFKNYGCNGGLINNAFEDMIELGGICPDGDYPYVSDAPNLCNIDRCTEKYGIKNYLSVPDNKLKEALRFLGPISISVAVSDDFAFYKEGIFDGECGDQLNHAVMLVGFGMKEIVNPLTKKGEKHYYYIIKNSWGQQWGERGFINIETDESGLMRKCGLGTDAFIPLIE

## N=C(N)c1ccc(-c2cn(-c3ccc(C(=N)N)cc3)nn2)cc1
Plasmodium falciparum [1]
  pIC50: 7.06

## N=C(N)c1ccc(-n2cc(-c3cccc(C(=N)N)c3)nn2)cc1
Plasmodium falciparum [1]
  pIC50: 6.36

## N=C(N)c1ccc(-c2cn(-c3cccc(C(=N)N)c3)nn2)cc1
Plasmodium falciparum [1]
  pIC50: 6.56

## C=C(C)[C@H](O)[C@@H](O)C[C@@H](C)C1=C2C[C@H](O)[C@H]3[C@@]4(C)CCC(=O)C(C)(C)[C@@H]4CC[C@]3(C)[C@@]2(C)CC1
Plasmodium falciparum [2]
  pIC50: 5.16
[3]
  Retention_time: 23 min

## O=C(N/N=C/C=C/c1ccccc1)c1ccncc1
Plasmodium falciparum [4]
  inhibition (INH): 80%

## O=C(N/N=C/c1ccc(O)cc1)c1ccncc1
Plasmodium falciparum [4]
  inhibition (INH): 90%

## COc1ccc(/C=C/C(=O)c2ccc(-n3cnc4ccccc43)cc2)c(OC)c1
Plasmodium falciparum [5]
  IC50: 1.1 µg/mL (≈ 2.86 µM)

## COc1ccc(/C=N/NC(=O)c2ccncc2)cc1O
Plasmodium falciparum [4]
  inhibition (INH): 91%

## Cc1ccc(-n2cc(C=O)c(-c3ccccc3)n2)cc1
Plasmodium berghei
  Activity: 85%

## Cc1ccc(-n2cc(C(=O)O)c(-c3ccccc3)n2)cc1
Plasmodium berghei
  Activity: 95%

## O=Cc1cn(-c2ccc(Cl)cc2)nc1-c1ccccc1
Plasmodium berghei
  Activity: 83%

## CC(=O)Nc1cc(/C=C/c2ccc(F)cc2)cc2cc(-c3ccc(F)cc3)[nH]c12
Plasmodium falciparum [6]
  pIC50: 5.67

## COC(=O)[C@H](Cc1ccc(O)c(-c2ccc3ccccc3c2)c1)NC(=O)C(=O)c1c[nH]c2ccccc12
Plasmodium falciparum [7]
  Activity: 60%

## COc1ccc(N2C(=O)[C@@H](Oc3ccc(Cl)cc3Cl)[C@H]2c2ccc(NC(=O)N3CCOCC3)cc2)cc1
Plasmodium falciparum [8]
  pIC50: 4.68

## CCN(Cc1cc(C2(C)OOC(c3ccncc3)OO2)ccc1O)c1ccccc1 (centres undefined)
Plasmodium falciparum [9]
  IC50: 5.3 µg/mL (≈ 13 µM)

## COC(=O)[C@H](Cc1ccc(O)c(-c2ccc(C(F)(F)F)cc2)c1)NC(=O)C(=O)c1c[nH]c2ccccc12
Plasmodium falciparum [7]
  Activity: 60%

## COC(=O)[C@H](Cc1ccc(O)c(I)c1)NC(=O)C(=O)c1c[nH]c2ccccc12
Plasmodium falciparum [7]
  Activity: 20%

## CCN(Cc1cc(C2(C)OOC(c3ccccc3)OO2)ccc1O)c1ccccc1 (centres undefined)
Plasmodium falciparum [9]
  IC50: 5.3 µg/mL (≈ 13 µM)

## CCN(Cc1cc(C2(C)OOC(c3cccs3)OO2)ccc1O)c1ccccc1 (centres undefined)
Plasmodium falciparum [9]
  IC50: 5.3 µg/mL (≈ 12.8 µM)

## CCN(CC)c1ccc(/N=C/c2cccc(CN3CCOCC3)c2O)cc1
Plasmodium falciparum [10]
  pIC50: 5.64

## Cc1ccc(C2=C/C(=C/c3cc4cc(C)ccc4nc3Cl)C(=O)O2)cc1
Plasmodium falciparum [11]
  MIC: 50 µg/mL (≈ 138 µM)

## COC(=O)[C@H](Cc1ccc(O)c(-c2ccc(F)cc2)c1)NC(=O)C(=O)c1c[nH]c2ccccc12
Plasmodium falciparum [12]
  pEC50: 5.89
Plasmodium falciparum [7]
  Activity: 60%

## CC1(C)C2CC=C(CC(=O)Oc3ccnc4cc(Cl)ccc34)[C@@H]1C2
Plasmodium falciparum [13]
  pEC50: 6.79
[14]
  CC50 at 72 h: > 160000 nM
Plasmodium falciparum [15]
  pEC50: 4.63
[16]
  selectivity ratio: > 976
Plasmodium falciparum [17]
  pEC50: < 4.30
[18]
  selectivity ratio: 0.7

## Oc1ccccc1/N=C/c1cccc(CN2CCOCC2)c1O
Plasmodium falciparum [10]
  pIC50: 5.64

## COC(=O)[C@H](Cc1ccc(O)c(-c2ccc(C(C)(C)C)cc2)c1)NC(=O)C(=O)c1c[nH]c2ccccc12
Plasmodium falciparum [7]
  Activity: 60%

## Oc1ccc(/N=C/c2cccc(CN3CCOCC3)c2O)cc1
Plasmodium falciparum [10]
  pIC50: 5.64

## N=C(NC(=O)OCc1ccccc1)NC(=O)c1ccc(C(=O)OCc2ccccc2)o1
Falcipain 2
  pKi: 5.57
